The text below walks through data of patent EP0689839A2, “Use of inhibitors of adenosine triphosphatase for the manufacture of a medicament for the treatment of disorders anociated with beta-amyloid peptide” (ELI LILLY AND COMPANY, priority 1994, dated 1996).

Values joined by “and” are separate entries in the source; they are usually repeats but may differ in a detail not shown here. Equal entries are not always repeated.

Data set [1] concerns β-amyloid peptide. The data set is described as follows: β-Amyloid Peptide Production Inhibition (Cellular Assay), ELISA of conditioned media. The format is cell-based. As to conditions: normalized for cytotoxicity (MTT). How it is done:
(§1) Two cell lines (human kidney cell line 293 and Chinese hamster ovary cell line CHO) were stably transfected with the gene for APP751 containing the double mutation Lys₆₅₁-Met₆₅₂ to Asn₆₅₁-Leu₆₅₂ (APP-751 numbering) commonly called the Swedish mutation using the method described in Citron, et al., Nature (London), 360:672-674 (1992). The transfected cell lines were designated as 293 751 SWE and CHO 751 SWE, and were plated in Corning 96 well plates at 2.5 x 10⁴ or 1 x 10⁴ cells per well respectively in Dulbecco's […] essential media (DMEM) plus 10% fetal bovine serum. Following overnight incubation at 37°C in an incubator equilibrated with 10% carbon dioxide (CO₂) and humidified air, the media were removed and replaced with 200 µl per well of media containing a macrolide. After a two hour pretreatment period, the media were again removed and replaced with fresh media containing the test compound and the cells were incubated for an additional two hours.
After treatment, plates were centrifuged at 1200 x g for five minutes at room temperature to pellet cellular debris from the conditioned media. From each well, 100 µl of conditioned media were transferred into an ELISA plate precoated with antibody 266 against βamyloid peptide(13-28) (Seubert et al., supra.) and stored at 4°C overnight. An ELISA assay employing labelled antibody 6C6 (against β-amyloid peptide-1-16) was run the next day to measure the amount of β-amyloid peptide produced.
The results of the β-amyloid peptide ELISA were fit to a standard curve and expressed as ng/ml β-amyloid peptide. In order to normalize for cytotoxicity, these β-amyloid peptide results were divided by the MTT results and expressed as a percentage of the results from a drug-free control.
(In general: ELISA stands for enzyme-linked immunosorbent assay.)

Data set [2] relates to 293 751 SWE and CHO 751 SWE. The data set is described as follows: Cytotoxic effects / cellular viability by MTT in the cellular assay. The format is cell-based. Here is the method: as §1
Cytotoxic effects of the compounds were measured by a modification of the method of Hansen, et al., Journal of Immununological Methods, 119:203-210 (1989). […] The difference in the OD562nm and the OD650nm was measured in a UVmax microplate reader as an indicator of the cellular viability.

In data set [3] the test system is human fetal primary cortical cultures. Description: Cytotoxicity in human fetal primary cortical cultures. As to conditions: 1 µM. The format is cell-based.
For data set [4], the system named is β-amyloid peptide. The data set is described as follows: β-amyloid peptide production in human fetal primary cortical cultures (ELISA). The format is cell-based. As to conditions: 1 µM; twenty four hour-conditioned medium; endogenous amyloid precursor protein. Here is the method:
In order to better understand this phenomenon, human fetal primary cortical cultures, which secrete β-amyloid peptide as a result of endogenous amyloid precursor protein processing, were treated with 1 µM bafilomycin. Twenty four hour-conditioned medium was collected and evaluated using enzyme-linked immunosorbent assay (ELISA).

Data set [5] relates to vacuolar ATPases. As to conditions: relative to other bafilomycins; cited from earlier work.
The mark [6] stands for this setting: 1 µg/ml, read-out: Percent Inhibition.

In the case of `CO/C1=C\C(C)=C\C(C)C(O)C(C)C/C(C)=C/C=C/C(OC)C(C(C)C(O)C(C)C2(O)CC(O)C(C)C(C(C)C)O2)OC1=O` (stereo not shown) [Bafilomycin A₁, bafilomycin A₁], the “Percent Inhibition” value in data set [1] (0.3 µM) was 91 ± 1% and 92 ± 1%. The inhibition at 0.3 µM in data set [1] (0.3 µM, read-out: Percent Inhibition) came out at 90 ± 2%. As for `CO/C1=C\C(C)=C\C(C)C(O)C(C)C/C(C)=C/C=C/C(OC)C(C(C)C(O)C(C)C2(O)CC(OC(=O)/C=C/C(=O)O)C(C)C(C(C)C)O2)OC1=O` (stereo not shown) [Bafilomycin C₁], in data set [1] (setting [6]), the inhibition at 1 µg/mL is 90 ± 2%.

With `CO/C1=C\C(C)=C\C(C)C(O)C(C)C/C(C)=C/C=C/C(OC)C(C(C)C(O)C(C)C(=O)/C=C/C(C)C(O)C(C)C)OC1=O` (stereo not shown) [Bafilomycin D, bafilomycin D], the inhibition at 1 µg/mL in data set [1] (setting [6]) is 4 ± 3%. For the molecule `C/C=C/[C@H]1O[C@@](O)([C@@H](C)[C@H](O)[C@H](C)[C@H]2OC(=O)/C(OC)=C/C(C)=C/[C@@H](C)[C@@H](O)[C@@H](CC)[C@@H](O)[C@H](C)C/C(C)=C/C=C/[C@@H]2OC)C[C@@H](O[C@H]2C[C@@H](O)[C@H](OC(N)=O)[C@@H](C)O2)[C@@H]1C` [Concanamycin A, concanamycin A], the “Percent Viability” value in data set [2] (1.2 µM) was determined as 97%. The “Percent Inhibition” value in data set [1] (1.2 µM) stood at 74 ± 4%. With `CO/C1=C\C(C)=C\[C@@H](C)[C@@H](O)[C@@H](C)C/C(C)=C/C=C/[C@H](OC)[C@@H]([C@@H](C)[C@@H](O)[C@H](C)[C@@]2(O)C[C@@H](O)[C@H](C)[C@@H](C(C)C)O2)OC1=O` [bafilomycin], the cytotoxicity entry in data set [3] is listed as “no cytotoxicity was observed”. Besides, the “inhibition of β-amyloid peptide production” value in data set [4] was “Greater than 75%”.

With Bafilomycin B₁, in data set [1] (1 µg/ml), the “Percent Inhibition” value is on record as 87 ± 1%.

Turning to bafilomycin A₁, the “Percent Viability” value in data set [2] (0.3 µM) was 112% and 99% and 102%.

On to bafilomycin D, for which, in data set [5], the “poorer inhibitor of vacuolar ATPases than other bafilomycins, especially bafilomycin A1” value is listed as approximately 40 fold. With elaiophyline, the “Percent Inhibition” value in data set [1] (0.6 µM) is 98 ± 2%; in data set [1] (1.2 µM), 100 ± 1%; in data set [1] (2.4 µM), 100 ± 2%; in data set [1] (4.9 µM) it was 100 ± 1%; in data set [1] (9.8 µM), 100 ± 1% and 131 ± 1%.

Usually inhibition stands for the drop in the measured response relative to a control, in per cent.
